According to patent US5248674A, “Percutaneous administration of 3'-azide'-deoxythymidine” (Nelson-Sumisho Co., Ltd., priority 1989, dated 1993):
Where two headings read alike, the source gives them in different places.

Legend:
[1] = type: in vitro ADME, rat (Wistar strain, male); conditions: rat skin; for promotion of AZT permeation through the skin (in words): in vitro, oleic acid vs water, Azone and S-318 vs 10% oleic acid; for F, AZT permeation rate: n = 3
Method: A. The abdominal skin of a rat (Wistar strain, male, 200 g) was removed after shaving and placed between the chambers of a diffusion cell comprising two chambers having an effective permeation area of 0.95 cm^2 and a capacity of 2.3 ml for each chamber. The chamber of the corneum side received an AZT solution to be tested and the other chamber received water. The cell was warmed to 37° C. while the permeation of the drug towards the opposite chamber was measured. The AZT solution contained […] (5 mg/ml) AZT either in water or an aqueous solution of 10% oleic acid. […] The results are plotted In FIG. 1. The permeation rate during the stable permeation state (Fss) was determined as follows from the slope of the plots between 10 and 24 hours:
B. In a manner similar to that described in A, further agents capable of promoting permeation of AZT were searched. The promotion rate by each of the tested agents was expressed in relative terms when the rate of 10% oleic acid is tentatively determined as 1.
C. In the similar manner as in A and B, the permeation of AZT as a function of its concentration (3.7 mM-112 mM) was studied. 112 mM (about 3%) is a preferred concentration of AZT for practical purposes in producing a percutaneous AZT composition. The combination of a) 3% Azone+20% MP or b) 5% S-318+10% OA+20% PG+10% MP was used as a permeation promoting agent.

[2] = cited from earlier work
[3] = In vivo study - plasma AZT level by percutaneous (oleic acid pretreated skin) and oral administration of AZT; parameters: species or system rat (Wistar strain, male); conditions: for concentration at 0.5 h / concentration at 1 h / concentration at 2 h / concentration at 4 h / concentration at 6 h / concentration at 8 h / concentration at 24 h: plasma
Method: Three male rates of Wistar strain weighing about 200 g was allotted to each group. The abdominal portion of the rat was shaven and pretreated with 10% oleic acid for 24 hours. Then a 1 ml aliquot of a solution containing 0.5% (18.7 mM) AZT and 10% oleic acid in water was applied over 4.9 cm^2 area of the skin by a glass cell secured on the body of the rat. AZT level in the plasma sampled at […], 2, 4, 6, 8 and 24 hours after the administration was determined by HPLC. A control group orally received 0.5 ml water containing 0.6 mg AZT.

[4] = In vivo study - percutaneous absorption of AZT without pretreatment with 10% oleic acid; parameters: species or system rat (Wistar strain, male); conditions: no pretreatment, rat
Method: In a manner similar to that described in Example 2, the possibility of percutaneous absorption of AZT without pretreatment with 10% oleic acid was studied.
As absorption promoting agents, a) an aqueous solution containing 3% Azone and 20% MP, and b) an aqueous solution containing 5% S-318, 10% OA, 20% PG and 10% MP were prepared. AZT was dissolved at 3.7 mM concentration in each of said absorption agents and 1 ml of the resulting solution was applied to the skin of rats in a similar manner as in Example 2.

[5] = test system: reverse transcriptases; conditions: background statement; cited from earlier work
[6] = according to Klecker et al. 1987
[7] = 3.7 mM (1 mg/ml) AZT, 3% Azone + 20% MP
[8] = 3.7 mM (1 mg/ml) AZT, 5% S-318 + 10% OA + 20% PG + 10% MP
[9] = 18.7 mM (5 mg/ml) AZT, 3% Azone + 20% MP
[10] = 18.7 mM (5 mg/ml) AZT, 5% S-318 + 10% OA + 20% PG + 10% MP
[11] = 56.2 mM (15 mg/ml) AZT, 3% Azone + 20% MP
[12] = 56.2 mM (15 mg/ml) AZT, 5% S-318 + 10% OA + 20% PG + 10% MP
[13] = 112 mM (30 mg/ml) AZT, 3% Azone + 20% MP
[14] = 112 mM (30 mg/ml) AZT, 5% S-318 + 10% OA + 20% PG + 10% MP
[15] = topical or ocular, percutaneous, 1 ml 0.5% AZT + 10% oleic acid, 4.9 cm^2, rat
[16] = oral, 0.6 mg AZT in 0.5 ml water, rat

In the case of `CCCCCCCC/C=C\CCCCCCCC(=O)O` [oleic acid], the “promotion of AZT permeation through the skin (in words)” value [1] is reported as “promoted permeation of AZT through the skin”.
For `Cc1cn([C@H]2C[C@H](N=[N+]=[N-])[C@@H](CO)O2)c(=O)[nH]c1=O` [AZT, 3'-azide-3'-deoxythymidine], the “clearance (Cltot)” value [2, 6] is listed as 78 L/h, the “plasma AZT level required for AIDS treatment (Css)” value [2, 6] is listed as 1000 nM and the “maintenance of an adequate AZT level in blood” value ([2]; conventional oral administration, 5 mg/kg every 4 hours, Klecker et al. 1987) is listed as “impossible to maintain an adequate AZT level in blood”. The relative promotion rate [1, 7] was 6.2, the “F, AZT permeation rate” value [1, 7] was 0.28 μmol/cm^2 /h and the relative promotion rate [1, 8] was 4.4. For the same compound, the “F, AZT permeation rate” value [1, 8] was 0.20 μmol/cm^2 /h, the relative promotion rate [1, 9] was 16.4 and the “F, AZT permeation rate” value [1, 9] was 0.74 μmol/cm^2 /h. For the same compound, the relative promotion rate [1, 10] was 14.0, the “F, AZT permeation rate” value [1, 10] was 0.63 μmol/cm^2 /h and the relative promotion rate [1, 11] was 49.3. For the same compound, the “F, AZT permeation rate” value [1, 11] was 2.22 μmol/cm^2 /h, the relative promotion rate [1, 12] was 53.6 and the “F, AZT permeation rate” value [1, 12] was 2.41 μmol/cm^2 /h. The relative promotion rate [1, 13] was 71.6, the “F, AZT permeation rate” value [1, 13] was 3.22 μmol/cm^2 /h and the relative promotion rate [1, 14] was 108. For the same compound, the “F, AZT permeation rate” value [1, 14] was 4.85 μmol/cm^2 /h, the “permeation rate during the stable permeation state (Fss)” value ([1]; 37° C, 18.7 mM (5 mg/ml) AZT in 10% oleic acid, slope between 10 and 24 hours) was 0.045 μmol/cm^2 /h and the “percutaneous absorption of AZT” value ([3]; applied to rat skin as a simple water solution (data not shown)) was “not observed at all”. For the same compound, the “percutaneous absorption of AZT, detection in plasma” value ([3]; in the presence of oleic acid, rat) was “could be detected in the plasma over 24 hours”, the “drug level in the plasma after oral administration” value ([3]; oral, 0.6 mg AZT, rat) was “undetectable at 6 hours after the administration” and the concentration at 0.5 h [3, 15] was 200 nM. The concentration at 1 h [3, 15] was 600 nM, the concentration at 2 h [3, 15] was 700 nM and the concentration at 4 h [3, 15] was 1500 nM. It also gave a concentration at 6 h [3, 15] of 1500 nM, a concentration at 8 h [3, 15] of 1500 nM and a concentration at 24 h [3, 15] of 4000 nM. The concentration at 0.5 h [3, 16] was 3100 nM, the concentration at 1 h [3, 16] was 2500 nM and the concentration at 2 h [3, 16] was 500 nM. The concentration at 4 h [3, 16] was 200 nM, the concentration at 6 h [3, 16] was less than 100 nM and the concentration at 8 h [3, 16] was less than 100 nM. The concentration at 24 h [3, 16] was less than 100 nM, the “AZT level in the plasma” value ([4]; 3.7 mM AZT with a) 3% Azone + 20% MP or b) 5% S-318 + 10% OA + 20% PG + 10% MP) was “a high AZT level in the plasma was achieved over a period of 10 hours” and the “efficient penetration of AZT through the skin” value ([4]; 3.7 mM AZT, promoting agent a) 3% Azone + 20% MP) was “especially remarkable”. The “inhibition of reverse transcriptases” value [5] was “effective inhibitor of reverse transcriptases”.
For `CCCCCCCCCCCCN1CCCCCC1=O` [Azone, 1-dodecylazacycloheptane-2-one], the “promotion of AZT permeation through the skin (in words)” value [1] was “greatly accelerated”.
